Conditions: 323.14 K, Liquid, Vibrating tube method

CCCCCCC(=O)OCC(COC(=O)CCCCCC)(COC(=O)CCCCCC)COC(=O)CCCCCC [pentaerythritol tetraheptanoate]
Conditions	mass density [kg/m3]
8083.9 kPa	961.1
8112.2 kPa	961
8146.4 kPa	961.1
8174.7 kPa	961.1
8204 kPa	961.1
8239.5 kPa	961.1
8270.3 kPa	961.2
8300.6 kPa	961.1
8335.1 kPa	961.2
8358.1 kPa	961.3
8377.9 kPa	961.3
8401.4 kPa	961.2
8421.2 kPa	961.3
8441.4 kPa	961.4
8465.3 kPa	961.4
8485.9 kPa	961.3
8506.7 kPa	961.3
8527.9 kPa	961.3
8548.6 kPa	961.4
8573.6 kPa	961.4
8594.5 kPa	961.5
8619.3 kPa	961.5
8640.2 kPa	961.3
8661.6 kPa	961.4
8682.6 kPa	961.4
9244.8 kPa	961.9
9604.8 kPa	962.1
9745.2 kPa	962.3
9761.3 kPa	962.2
9775 kPa	962.3
9934.6 kPa	962.3
9965.6 kPa	962.4
9979.5 kPa	962.3
9996.2 kPa	962.3
10025 kPa	962.4
10042 kPa	962.3
10056 kPa	962.4
10453 kPa	962.6
10957 kPa	962.9
10974 kPa	962.9
10995 kPa	963
11012 kPa	962.9
11032 kPa	963
11050 kPa	963.1
11067 kPa	963
11088 kPa	963
11123 kPa	963.1
11141 kPa	963.1
11162 kPa	963.1
11180 kPa	963.2
11202 kPa	963.2
11220 kPa	963.2
11238 kPa	963.3
11259 kPa	963.3
11278 kPa	963.2
11296 kPa	963.2
11317 kPa	963.2
11335 kPa	963.2
11354 kPa	963.2
11679 kPa	963.5
11702 kPa	963.5
11722 kPa	963.5
11742 kPa	963.4
11765 kPa	963.6
11786 kPa	963.6
11806 kPa	963.5
11826 kPa	963.6
11850 kPa	963.7
11871 kPa	963.6
11892 kPa	963.5
11914 kPa	963.6
11934 kPa	963.6
11958 kPa	963.7
12004 kPa	963.6
12461 kPa	964
12560 kPa	964
12657 kPa	963.9
12708 kPa	964
12732 kPa	964
12784 kPa	964.2
12808 kPa	964.1
12962 kPa	964.3
12986 kPa	964.3
13011 kPa	964.3
13041 kPa	964.2
13066 kPa	964.4
13090 kPa	964.3
13120 kPa	964.4
13146 kPa	964.4
13171 kPa	964.4
13202 kPa	964.3
13252 kPa	964.5
13283 kPa	964.5
13308 kPa	964.4
13334 kPa	964.6
13365 kPa	964.6
13391 kPa	964.5
13418 kPa	964.6
13449 kPa	964.6
13475 kPa	964.7
13502 kPa	964.6
13533 kPa	964.6
13560 kPa	964.7
13587 kPa	964.5
13619 kPa	964.7
13645 kPa	964.7
13678 kPa	964.8
13705 kPa	964.6
13732 kPa	964.8
13760 kPa	964.7
13793 kPa	964.8

Reference: the NIST ThermoML archive (doi:10.1021/je060271a)
